This is an account of results in patent publication US12077503B2, “Substituted cyclic amides and their use as herbicides” (FMC CORPORATION, priority 2015, dated 2024).

Each structure is given as a SMILES string. Read-outs that look alike come from different tables or passages of the source.

Holding throughout (experiment): Test A preemergence
Common to all, as to format: in vivo

For experiment [1], the system named is pigweed (Amaranthus retroflexus). The settings on record: Amaranthus retroflexus, pre-emergence, 240 h; for pest or weed control at 125 g/ha: 125 g ai/ha; for pest or weed control at 500 g/ha: 500 g ai/ha.
Another experiment has as its system Kochia (Kochia scoparia). Particulars: Bassia scoparia, pre-emergence, 240 h; for pest or weed control at 125 g/ha: 125 g ai/ha; for pest or weed control at 500 g/ha: 500 g ai/ha. The method, boiled down:
(§1)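 Greenhouse, ~10 d after spray; visual injury vs untreated controls, 0 = no effect, 100 = complete control. Preemergence: directed soil spray over planted seeds. Postemergence: plants 2–10 cm, 1–2 leaf stage. Loam/sand blend. Compound in non-phytotoxic solvent with surfactant.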

Experiment [2] concerns ryegrass, Italian (Italian ryegrass, Lolium multiflorum). The settings on record: Lolium multiflorum, pre-emergence, 240 h; for pest or weed control at 125 g/ha: 125 g ai/ha; for pest or weed control at 500 g/ha: 500 g ai/ha. The method, boiled down:
as §1

Experiment [3] deals with barnyardgrass (Echinochloa crus-galli). The settings on record: Echinochloa crus-galli, pre-emergence, 240 h; for pest or weed control at 125 g/ha: 125 g ai/ha; for pest or weed control at 500 g/ha: 500 g ai/ha. Put shortly:
as §1

Experiment [4] deals with ragweed (common ragweed, Ambrosia elatior). The settings on record: Ambrosia artemisiifolia, pre-emergence, 240 h; for pest or weed control at 125 g/ha: 125 g ai/ha; for pest or weed control at 500 g/ha: 500 g ai/ha. Put shortly: as §1
The subject of experiment [5] is giant foxtail (Setaria faberii). Particulars: Setaria faberi, pre-emergence, 240 h; for pest or weed control at 125 g/ha: 125 g ai/ha; for pest or weed control at 500 g/ha: 500 g ai/ha. Put shortly:
as §1

Where [6] appears, read: preemergence, visual rating after approx. 10 d, 0 to 100 scale where 0 is no effect and 100 is complete control, read-out: Plant response rating, Pigweed.
[7] abbreviates: Preemergence, visual injury vs untreated controls after approximately 10 d, read-out: Pigweed plant response rating (0 to 100 scale where 0 is no effect and 100 is complete control).
The mark [8] stands for this setting: preemergence, visual rating after approx. 10 d, 0 to 100 scale where 0 is no effect and 100 is complete control, read-out: Plant response rating, Kochia.
The mark [9] stands for this setting: Preemergence, visual injury vs untreated controls after approximately 10 d, read-out: Kochia plant response rating (0 to 100 scale where 0 is no effect and 100 is complete control).
[10] abbreviates: preemergence, visual rating after approx. 10 d, 0 to 100 scale where 0 is no effect and 100 is complete control, read-out: Plant response rating, Ryegrass, Italian.
Where [11] appears, read: Preemergence, visual injury vs untreated controls after approximately 10 d, read-out: Ryegrass, Italian plant response rating (0 to 100 scale where 0 is no effect and 100 is complete control).
The mark [12] stands for this setting: preemergence, visual rating after approx. 10 d, 0 to 100 scale where 0 is no effect and 100 is complete control, read-out: Plant response rating, Barnyardgrass.
[13] abbreviates: Preemergence, visual injury vs untreated controls after approximately 10 d, read-out: Barnyardgrass plant response rating (0 to 100 scale where 0 is no effect and 100 is complete control).
Setting [14] is: preemergence, visual rating after approx. 10 d, 0 to 100 scale where 0 is no effect and 100 is complete control, read-out: Plant response rating, Ragweed.
Where [15] appears, read: Preemergence, visual injury vs untreated controls after approximately 10 d, read-out: Ragweed plant response rating (0 to 100 scale where 0 is no effect and 100 is complete control).
Setting [16] is: preemergence, visual rating after approx. 10 d, 0 to 100 scale where 0 is no effect and 100 is complete control, read-out: Plant response rating, Foxtail, Giant.
Where [17] appears, read: Preemergence, visual injury vs untreated controls after approximately 10 d, read-out: Foxtail, Giant plant response rating (0 to 100 scale where 0 is no effect and 100 is complete control).
Where [18] appears, read: preemergence, 0 to 100 scale (0 no effect, 100 complete control), read-out: Plant response rating, Pigweed.
[19] abbreviates: Preemergence, 0 to 100 scale (0 no effect, 100 complete control), read-out: Plant response rating, Pigweed.
[20] abbreviates: preemergence, 0 to 100 scale (0 no effect, 100 complete control), read-out: Plant response rating, Barnyardgrass.
[21] abbreviates: Preemergence, 0 to 100 scale (0 no effect, 100 complete control), read-out: Plant response rating, Barnyardgrass.
Where [22] appears, read: preemergence, 0 to 100 scale (0 no effect, 100 complete control), read-out: Plant response rating, Foxtail, Giant.
Setting [23] is: Preemergence, 0 to 100 scale (0 no effect, 100 complete control), read-out: Plant response rating, Foxtail, Giant.
Setting [24] is: preemergence, 0 to 100 scale, 0 = no effect, 100 = complete control, read-out: Plant response rating, Pigweed.
The mark [25] stands for this setting: preemergence, 0 to 100 scale, 0 = no effect, 100 = complete control, read-out: Plant response rating, Kochia.
The mark [26] stands for this setting: preemergence, 0 to 100 scale, 0 = no effect, 100 = complete control, read-out: Plant response rating, Ryegrass, Italian.
Setting [27] is: preemergence, 0 to 100 scale, 0 = no effect, 100 = complete control, read-out: Plant response rating, Barnyardgrass.
[28] abbreviates: preemergence, 0 to 100 scale, 0 = no effect, 100 = complete control, read-out: Plant response rating, Ragweed.
The mark [29] stands for this setting: preemergence, 0 to 100 scale, 0 = no effect, 100 = complete control, read-out: Plant response rating, Foxtail, Giant.

In the case of `CN1C[C@H](c2ccc(C#N)cc2)[C@@H](C(=O)Nc2cccc(F)c2F)C1=O` (racemic) [Compound 775], the pest or weed control at 125 g/ha in experiment [1] (setting [6]) stood at 30%; in the experiment with Kochia (Kochia scoparia) (setting [8]) it was 30%; in experiment [2] (setting [10]), 0%; in experiment [3] (setting [12]), 60%; in experiment [4] (setting [14]), 50%; in experiment [5] (setting [16]), 80%. In addition, the pest or weed control at 500 g/ha in experiment [1] (setting [7]) was 70%; in the experiment on Kochia (Kochia scoparia) (setting [9]) it was 80%; in experiment [2] (setting [11]), 0%; in experiment [3] (setting [13]), 100%; in experiment [4] (setting [15]), 80%; in experiment [5] (setting [17]), 100%.
For the molecule `CN1C[C@H](c2cccc(S(C)(=O)=O)c2)[C@@H](C(=O)Nc2cccc(F)c2F)C1=O` (racemic) [Compound 777], the pest or weed control at 125 g/ha in experiment [1] (setting [6]) was found to be 0%; in the experiment with Kochia (Kochia scoparia) (setting [8]) it was 0%; in experiment [2] (setting [10]) it was 40%; in experiment [3] (setting [12]), 70%; in experiment [4] (setting [14]) it was 0%; in experiment [5] (setting [16]), 80%. Moreover, the pest or weed control at 500 g/ha in experiment [1] (setting [7]) worked out at 40%; in the experiment on Kochia (Kochia scoparia) (setting [9]), 0%; in experiment [2] (setting [11]), 70%; in experiment [3] (setting [13]) it was 100%; in experiment [4] (setting [15]) it was 0%; in experiment [5] (setting [17]) it was 100%.
Take `CO[C@]1(C(=O)Nc2cccc(F)c2F)C(=O)N(C)C[C@@H]1c1ccc(C(F)(F)F)cc1` (racemic) [Compound 1334]: the pest or weed control at 500 g/ha is 30% in experiment [1] (setting [18]); 20% in the experiment with Kochia (Kochia scoparia) (preemergence, 0 to 100 scale (0 no effect, 100 complete control), read-out: Plant response rating, Kochia); 20% in experiment [2] (preemergence, 0 to 100 scale (0 no effect, 100 complete control), read-out: Plant response rating, Ryegrass, Italian); 80% in experiment [3] (setting [20]); 30% in experiment [4] (preemergence, 0 to 100 scale (0 no effect, 100 complete control), read-out: Plant response rating, Ragweed); 80% in experiment [5] (setting [22]). In addition, the pest or weed control at 125 g/ha in experiment [1] (setting [19]) worked out at 20%; in the experiment on Kochia (Kochia scoparia) (Preemergence, 0 to 100 scale (0 no effect, 100 complete control), read-out: Plant response rating, Kochia), 0%; in experiment [2] (Preemergence, 0 to 100 scale (0 no effect, 100 complete control), read-out: Plant response rating, Ryegrass, Italian), 0%; in experiment [3] (setting [21]), 20%; in experiment [4] (Preemergence, 0 to 100 scale (0 no effect, 100 complete control), read-out: Plant response rating, Ragweed), 0%; in experiment [5] (setting [23]), 40%.
Regarding `COc1ccc([C@H]2CNC(=O)[C@@H]2C(=O)Nc2ccccc2S(C)(=O)=O)cc1F` [Compound 721], the pest or weed control at 125 g/ha in experiment [1] (setting [6]) was 0%; in the experiment with Kochia (Kochia scoparia) (setting [8]) it was 0%; in experiment [2] (setting [10]) it was 0%; in experiment [3] (setting [12]), 30%; in experiment [4] (setting [14]), 0%; in experiment [5] (setting [16]) it was 30%. The pest or weed control at 500 g/ha in experiment [1] (setting [24]) is 0%; with Kochia (Kochia scoparia) (setting [25]), 0%; in experiment [2] (setting [26]), 20%; in experiment [3] (setting [27]), 80%; in experiment [4] (setting [28]), 50%; in experiment [5] (setting [29]), 90%.
Consider `O=C1NC[C@H](c2ccc(C3CC3)cc2)[C@H]1C(=O)Nc1ccccc1F` [Compound 727], for which the pest or weed control at 125 g/ha was determined as 0% in experiment [1] (setting [6]); 0% in the experiment with Kochia (Kochia scoparia) (setting [8]); 0% in experiment [2] (setting [10]); 70% in experiment [3] (setting [12]); 0% in experiment [4] (setting [14]); 80% in experiment [5] (setting [16]). The pest or weed control at 500 g/ha in experiment [1] (setting [24]) is 0%; in the experiment with Kochia (Kochia scoparia) (setting [25]), 0%; in experiment [2] (setting [26]), 0%; in experiment [3] (setting [27]), 90%; in experiment [4] (setting [28]), 0%; in experiment [5] (setting [29]) it was 90%.
Regarding `Cc1ccc([C@H]2CN(C)C(=O)[C@@H]2C(=O)Nc2cccc(F)c2F)c(F)c1` [Compound 730], the pest or weed control at 125 g/ha was 30% in experiment [1] (setting [6]); 70% in the experiment with Kochia (Kochia scoparia) (setting [8]); 20% in experiment [2] (setting [10]); 90% in experiment [3] (setting [12]); 50% in experiment [4] (setting [14]); 90% in experiment [5] (setting [16]). Further, the pest or weed control at 500 g/ha in experiment [1] (setting [24]) stood at 50%; in the experiment with Kochia (Kochia scoparia) (setting [25]), 80%; in experiment [2] (setting [26]), 70%; in experiment [3] (setting [27]), 100%; in experiment [4] (setting [28]), 60%; in experiment [5] (setting [29]) it was 100%.
Consider `O=C1NCC(c2ccccc2)C1C(=O)Nc1cccnc1` (stereo not drawn) [Compound 1356], for which the pest or weed control at 500 g/ha in experiment [1] (setting [18]), in experiment [3] (setting [20]) and in experiment [5] (setting [22]) was 0% in each case. The pest or weed control at 125 g/ha in experiment [1] (setting [19]), in experiment [3] (setting [21]) and in experiment [5] (setting [23]) was 0% throughout.
Consider `O=C1NCC(c2ccccc2)C1C(=O)Nc1ccccc1Oc1ccccc1` (stereo not drawn) [Compound 1357], for which the pest or weed control at 500 g/ha in experiment [1] (setting [18]), in experiment [3] (setting [20]) and in experiment [5] (setting [22]) was 0% each time. Further, the pest or weed control at 125 g/ha in experiment [1] (setting [19]), in experiment [3] (setting [21]) and in experiment [5] (setting [23]) was 0% each time.
